{"source": "patent US9040528B2", "about": "“Chemical compounds 542” (AstraZeneca AB, priority 2008, dated 2015)", "data": [{"target": "Escherichia coli DNA gyrase A/B tetramer (Escherichia coli (strain K12), UniProt P0AES4+P0AES6)", "test": "DNA gyrase supercoiling activity fluorescence polarisation assay", "assay_type": "biochemical", "details": "5 nM enzyme, relaxed plasmid, 0.3 mM ATP, ambient temperature; read-out: E. coli DNA gyrase supercoiling IC50", "experimental": "DNA Gyrase Supercoiling Activity Fluorescence Polarisation Assay\nThe supercoiling reactions may be quenched by the addition of 10 microliters/well of 40 nM oligodeoxynucleotide probe in 3× triplex-forming buffer consisting of 150 mM NaCl, and 150 mM sodium acetate at pH 3.5. The oligodeoxynucleotide probe may be 5′-BODIPY-FL-labeled […]. After 60 minutes, the fluorescence anisotropy of the BODIPY-FL may be measured in a Tecan Ultra plate reader, using 485 nm excitation and 535 nm emission filters equipped with polarizers. The IC50 may be determined by nonlinear regression using two control reactions. The first contains no test compound but 0.8% DMSO (100% activity) while the second control reaction contains 5 μM Ciprofloxacin and 0.8% DMSO (0% activity).", "units": {"IC50": "µM"}, "values": [{"smiles": "CC(=O)Nc1ccn(-c2noc3c(F)c4c(cc23)CC2(C(=O)NC(=O)NC2=O)[C@H]2[C@H](C)O[C@H](C)CN42)n1", "note": "(relative stereo) [Example 28, N-{1-[(2R,4S,4aS)-rel-11-fluoro-2,4-dimethyl-2′,4′,6′-trioxo-1,1′,2,3′,4,4′,4a,6′-octahydro-2′H,6H-spiro[1,4-oxazino[4,3-a][1,2]oxazolo[4,5-g]quinoline-5,5′-pyrimidin]-8-yl]-1H-pyrazol-3-yl}acetamide]", "IC50": 3.1}, {"smiles": "Cc1cc(C(F)F)nn1-c1noc2c(F)c3c(cc12)CC1(C(=O)NC(=O)NC1=O)[C@H]1[C@H](C)O[C@H](C)CN31", "note": "(relative stereo) [Example 30, (2R,4S,4aS)-rel-8-[3-(difluoromethyl)-5-methyl-1H-pyrazol-1-yl]-11-fluoro-2,4-dimethyl-1,2,4,4a-tetrahydro-2′H,6H-spiro[isoxazolo[4,5-g][1,4]oxazino[4,3-a]quinoline-5,5′-pyrimidine]-2′,4′,6′(1′H,3′H)-trione]", "IC50": 5.4}, {"smiles": "CCCNc1noc2c(F)c3c(cc12)CC1(C(=O)NC(=O)NC1=O)[C@H]1[C@H](C)O[C@H](C)CN31", "note": "(relative stereo) [Example 31, (2R,4S,4aS)-rel-11-fluoro-2,4-dimethyl-8-(propylamino)-1,2,4,4a-tetrahydro-2′H,6H-spiro[1,4-oxazino[4,3-a][1,2]oxazolo[4,5-g]quinoline-5,5′-pyrimidine]-2′,4′,6′(1′H,3′H)-trione]", "IC50": 2.2}, {"smiles": "C[C@@H]1CN2c3c(cc4c(N(C)Cc5ccccc5)noc4c3F)CC3(C(=O)NC(=O)NC3=O)[C@H]2[C@H](C)O1", "note": "(relative stereo) [Example 32, (2R,4S,4aS)-rel-8-[benzyl(methyl)amino]-11-fluoro-2,4-dimethyl-1,2,4,4a-tetrahydro-2′H,6H-spiro[1,4-oxazino[4,3-a][1,2]oxazolo[4,5-g]quinoline-5,5′-pyrimidine]-2′,4′,6′(1′H,3′H)-trione]", "IC50": 0.6}, {"smiles": "C[C@@H]1CN2c3c(cc4c(-n5cc(C#N)c(N)n5)noc4c3F)CC3(C(=O)NC(=O)NC3=O)[C@H]2[C@H](C)O1", "note": "(relative stereo) [Example 33, 3-amino-1-[(2R,4S,4aS)-rel-11-fluoro-2,4-dimethyl-2′,4′,6′-trioxo-1,1′,2,3′,4,4′,4a,6′-octahydro-2′H,6H-spiro[1,4-oxazino[4,3-a][1,2]oxazolo[4,5-g]quinoline-5,5′-pyrimidin]-8-yl]-1H-pyrazole-4-carbonitrile]", "IC50": 1}, {"smiles": "C[C@@H]1CN2c3c(cc4c(-n5cc(-c6ccncn6)cn5)noc4c3F)CC3(C(=O)NC(=O)NC3=O)[C@H]2[C@H](C)O1", "note": "(relative stereo) [Example 34, (2R,4S,4aS)-rel-11-fluoro-2,4-dimethyl-8-[4-(pyrimidin-4-yl)-1H-pyrazol-1-yl]-1,2,4,4a-tetrahydro-2′H,6H-spiro[1,4-oxazino[4,3-a][1,2]oxazolo[4,5-g]quinoline-5,5′-pyrimidine]-2′,4′,6′(1′H,3′H)-trione]", "IC50": 16.3}, {"smiles": "C[C@@H]1CN2c3c(cc4c(-n5cc(-c6cnccn6)cn5)noc4c3F)CC3(C(=O)NC(=O)NC3=O)[C@H]2[C@H](C)O1", "note": "(relative stereo) [Example 35, (2R,4S,4aS)-rel-11-fluoro-2,4-dimethyl-8-[4-(pyrazin-2-yl)-1H-pyrazol-1-yl]-1,2,4,4a-tetrahydro-2′H,6H-spiro[1,4-oxazino[4,3-a][1,2]oxazolo[4,5-g]quinoline-5,5′-pyrimidine]-2′,4′,6′(1′H,3′H)-trione]", "IC50": 30}, {"smiles": "CCOC(=O)c1cnn(-c2noc3c(F)c4c(cc23)CC2(C(=O)NC(=O)NC2=O)[C@H]2[C@H](C)O[C@H](C)CN42)c1", "note": "(relative stereo) [Example 37, ethyl 1-[(2R,4S,4aS)-rel-11-fluoro-2,4-dimethyl-2′,4′,6′-trioxo-1,1′,2,3′,4,4′,4a,6′-octahydro-2′H,6H-spiro[1,4-oxazino[4,3-a][1,2]oxazolo[4,5-g]quinoline-5,5′-pyrimidin]-8-yl]-1H-pyrazole-4-carboxylate]", "IC50": 8.5}, {"smiles": "C[C@@H]1CN2c3c(cc4c(-c5ccccn5)noc4c3Cl)CC3(C(=O)NC(=O)NC3=O)[C@H]2[C@H](C)O1", "note": "(relative stereo) [Example 38, (2R,4S,4aS)-rel-11-chloro-2,4-dimethyl-8-(pyridin-2-yl)-1,2,4,4a-tetrahydro-2′H,6H-spiro[1,4-oxazino[4,3-a][1,2]oxazolo[4,5-g]quinoline-5,5′-pyrimidine]-2′,4′,6′(1′H,3′H)-trione]", "IC50": 0.8}, {"smiles": "Cc1ccc(-c2noc3c(Cl)c4c(cc23)CC2(C(=O)NC(=O)NC2=O)[C@H]2[C@H](C)O[C@H](C)CN42)cn1", "note": "(relative stereo) [Example 40, (2R,4S,4 aS)-rel-11-chloro-2,4-dimethyl-8-(6-methylpyridin-3-yl)-1,2,4,4a-tetrahydro-2′H,6H-spiro[1,4-oxazino[4,3-a][1,2]oxazolo[4,5-g]quinoline-5,5′-pyrimidine]-2′,4′,6′(1′H,3′H)-trione]", "IC50": 1.6}, {"smiles": "C[C@@H]1CN2c3c(cc4c(-c5cncs5)noc4c3Cl)CC3(C(=O)NC(=O)NC3=O)[C@H]2[C@H](C)O1", "note": "(relative stereo) [Example 41, (2R,4S,4aS)-rel-11-chloro-2,4-dimethyl-8-(1,3-thiazol-5-yl)-1,2,4,4a-tetrahydro-2′H,6H-spiro[1,4-oxazino[4,3-a][1,2]oxazolo[4,5-g]quinoline-5,5′-pyrimidine]-2′,4′,6′(1′H,3′H)-trione]", "IC50": 0.8}, {"smiles": "C[C@@H]1CN2c3c(cc4c(-c5ccncn5)noc4c3Cl)CC3(C(=O)NC(=O)NC3=O)[C@H]2[C@H](C)O1", "note": "(relative stereo) [Example 43, (2R,4S,4aS)-rel-11-chloro-2,4-dimethyl-8-(pyrimidin-4-yl)-1,2,4,4a-tetrahydro-2′H,6H-spiro[1,4-oxazino[4,3-a][1,2]oxazolo[4,5-g]quinoline-5,5′-pyrimidine]-2′,4′,6′(1′H,3′H)-trione]", "IC50": 0.5}, {"smiles": "C[C@@H]1CN2c3c(cc4c(-c5ccnnc5)noc4c3Cl)CC3(C(=O)NC(=O)NC3=O)[C@H]2[C@H](C)O1", "note": "(relative stereo) [Example 45, (2R,4S,4aS)-rel-11-chloro-2,4-dimethyl-8-(pyridazin-4-yl)-1,2,4,4a-tetrahydro-2′H,6H-spiro[1,4-oxazino[4,3-a][1,2]oxazolo[4,5-g]quinoline-5,5′-pyrimidine]-2′,4′,6′(1′H,3′H)-trione]", "IC50": 1.6}, {"smiles": "C[C@@H]1CN2c3c(cc4c(-c5ccncc5)noc4c3Cl)CC3(C(=O)NC(=O)NC3=O)[C@H]2[C@H](C)O1", "note": "(relative stereo) [Example 46, (2R,4S,4aS)-rel-11-chloro-2,4-dimethyl-8-(pyridin-4-yl)-1,2,4,4a-tetrahydro-2′H,6H-spiro[1,4-oxazino[4,3-a][1,2]oxazolo[4,5-g]quinoline-5,5′-pyrimidine]-2′,4′,6′(1′H,3′H)-trione]", "IC50": 1}, {"smiles": "C[C@@H]1CN2c3c(cc4c(-c5cccnc5)noc4c3Cl)CC3(C(=O)NC(=O)NC3=O)[C@H]2[C@H](C)O1", "note": "(relative stereo) [Example 47, (2R,4S,4aS)-rel-11-chloro-2,4-dimethyl-8-(pyridin-3-yl)-1,2,4,4a-tetrahydro-2′H,6H-spiro[1,4-oxazino[4,3-a][1,2]oxazolo[4,5-g]quinoline-5,5′-pyrimidine]-2′,4′,6′(1′H,3′H)-trione]", "IC50": 0.3}, {"smiles": "C[C@@H]1CN2c3c(cc4c(-c5nccs5)noc4c3Cl)CC3(C(=O)NC(=O)NC3=O)[C@H]2[C@H](C)O1", "note": "(relative stereo) [Example 48, (2R,4S,4aS)-rel-11-chloro-2,4-dimethyl-8-(1,3-thiazol-2-yl)-1,2,4,4a-tetrahydro-2′H,6H-spiro[1,4-oxazino[4,3-a][1,2]oxazolo[4,5-g]quinoline-5,5′-pyrimidine]-2′,4′,6′(1′H,3′H)-trione]", "IC50": 1}, {"smiles": "COCc1noc2c(Cl)c3c(cc12)CC1(C(=O)NC(=O)NC1=O)[C@H]1[C@H](C)O[C@H](C)CN31", "note": "(relative stereo) [Example 49, (2R,4S,4aS)-rel-11-chloro-8-(methoxymethyl)-2,4-dimethyl-1,2,4,4a-tetrahydro-2′H,6H-spiro[1,4-oxazino[4,3-a][1,2]oxazolo[4,5-g]quinoline-5,5′-pyrimidine]-2′,4′,6′(1′H,3′H)-trione]", "IC50": 1.7}, {"smiles": "CCCN(C)c1noc2c(F)c3c(cc12)CC1(C(=O)NC(=O)NC1=O)[C@H]1[C@H](C)O[C@H](C)CN31", "note": "(relative stereo) [Example 50, (2R,4S,4aS)-rel-11-fluoro-2,4-dimethyl-8-[methyl(propyl)amino]-1,2,4,4a-tetrahydro-2′H,6H-spiro[1,4-oxazino[4,3-a][1,2]oxazolo[4,5-g]quinoline-5,5′-pyrimidine]-2′,4′,6′(1′H,3′H)trione]", "IC50": 0.5}, {"smiles": "COc1noc2c(F)c3c(cc12)CC1(C(=O)NC(=O)NC1=O)[C@H]1[C@H](C)O[C@H](C)CN31", "note": "(relative stereo) [Example 51, (2R,4S,4aS)-rel-11-fluoro-8-methoxy-2,4-dimethyl-1,2,4,4a-tetrahydro-2′H,6H-spiro[1,4-oxazino[4,3-a][1,2]oxazolo[4,5-g]quinoline-5,5′-pyrimidine]-2′,4′,6′(1′H,3′H)-trione]", "IC50": 1}, {"smiles": "C[C@@H]1CN2c3c(cc4c(OCc5ccccc5)noc4c3F)CC3(C(=O)NC(=O)NC3=O)[C@H]2[C@H](C)O1", "note": "(relative stereo) [Example 52, (2R,4S,4aS)-rel-8-(benzyloxy)-11-fluoro-2,4-dimethyl-1,2,4,4a-tetrahydro-2′H,6H-spiro[1,4-oxazino[4,3-a][1,2]oxazolo[4,5-g]quinoline-5,5′-pyrimidine]-2′,4′,6′(1′H,3′H)-trione]", "IC50": 2.4}]}]}
